For data set [1], the target named is T1, human recombinant histamine H3R stably expressed in HEK-293 cells (Homo sapiens, UniProt Q9Y5N1).
T1 construct: HEK-293 cells stably expressing the recombinant full length hH3R; expressed in transfected cells; crude membrane preparations
As to the kind of experiment: [3H]Nα-methylhistamine hH3R displacement (radioligand depletion) binding assay. The settings on record: [3H]Nα-methylhistamine displacement, HEK-293 membranes, mean [95% confidence interval]. The source says:
Unbound radioligand was removed by three washing steps with ice-cold water.

Data set [2] can be described thus: FRAP (ferric reducing antioxidant power) assay. The settings on record: 10 min incubation, vs sample containing solvent. The protocol:
(§1) In order to determine the possible antioxidant properties, selected compounds were tested in 2,2-diphenyl-1-picrylhydrazyl (DPPH) and ferric reducing antioxidant power (FRAP) assay with ascorbic acid as a reference compound (Table 2). For details, please refer to the Materials and Methods Section. Graphical representation of tests results can be found in Supplementary Material.
(§2) Antioxidant properties of compounds were tested in vitro in two different assays: the 2,2-diphenyl-1-picrylhydrazyl (DPPH) assay and the FeCl3 reduction activity assay (FRAP, ferric reducing antioxidant power). The tested compounds and ascorbic acid were dissolved in DMSO at the 10^−2 mol/L concentration, and in ethanol at the concentration of 10^−4 mol/L respectively. Moreover, 30% and 50% ascorbic acid activity cut-off for DPPH and FRAP assays respectively were set ad hoc.
A modified method of Benzie and Strain [38] was adopted for the FRAP assay. The stock solutions included 300 mM acetate buffer (3.1 g of C2H3NaO2 × 3H2O and 16 mL of C2H4O2), pH 3.6, 10 mM TPTZ (2,4,6-tripyridyl-s-triazine) solution in 40 mM HCl, and 20 mM FeCl3 × 6H2O solution. The working solution was prepared by mixing 10 parts of acetate buffer, 1 part of TPTZ solution, and 1 part of FeCl3 × 6H2O solution. A portion of 180 μL of the FRAP solution was mixed with 20 μL of the tested compound solution and incubated at room temperature for 10 min in the dark. Readings of the color product (ferrous tripyridyl triazine complex) were then taken at 593 nm against ethanol. Results are expressed as an increase in absorbance of the test sample compared to a sample containing the solvent. L-ascorbic acid was used as reference compound.

Data set [3] can be described thus: DPPH free radical scavenging assay. The settings on record: 10^−4 mol/L; 30 min incubation; vs solvent + reaction mixture blank. The protocol: as §1, §2
DPPH is a molecule containing a stable free radical. The reduction of DPPH (purple) in ethanol solution takes place in the presence of a hydrogen-donating antioxidant due to the formation of the non-radical form of DPPH-H (yellow). This transformation results in color change from purple to yellow, which can be measured spectrophotometrically. Thus, the decrease in absorbance is proportional to the decrease in concentration of DPPH (free radical) and discoloration of reaction mixture indicates the scavenging of free radicals by a tested antioxidant.
In order to determine antioxidant capacity, 20 μL of the compound solutions (dissolved in 96% ethanol) was mixed with 180 μL of 0.3 mM ethanolic DPPH solution. The change in the absorbance was detected at 517 nm after 30 min of incubation. Results were expressed as percentage decrease in absorbance of the tested sample, compared to the sample containing the solvent + reaction mixture (blank with maximum concentration of the DPPH radical). L-ascorbic acid was used as a reference compound. Calculations were made using MS Excel, from the proportion where the change of absorbance in the vitamin C (vit. C) group was treated as 100%, according to Equation (1):(1) % activity of Vit.C=ΔAb×100/ΔAVit. C
Calculation of % Vit. C activity: ΔAb -the change in the absorbance of the test sample and ΔAVit. C is change in the absorbance of reference sample, or with vit. C.
On the technique in general: DPPH is a stable violet radical that fades when it is reduced.

[4] abbreviates: read-out: hH3R Ki [nM] x¯ [CI 95%].

Like-named read-outs stand apart in the source and are kept apart here. Where only a bound is given, the exact number is not on record here.

T1 sequence (Q9Y5N1 whole entry): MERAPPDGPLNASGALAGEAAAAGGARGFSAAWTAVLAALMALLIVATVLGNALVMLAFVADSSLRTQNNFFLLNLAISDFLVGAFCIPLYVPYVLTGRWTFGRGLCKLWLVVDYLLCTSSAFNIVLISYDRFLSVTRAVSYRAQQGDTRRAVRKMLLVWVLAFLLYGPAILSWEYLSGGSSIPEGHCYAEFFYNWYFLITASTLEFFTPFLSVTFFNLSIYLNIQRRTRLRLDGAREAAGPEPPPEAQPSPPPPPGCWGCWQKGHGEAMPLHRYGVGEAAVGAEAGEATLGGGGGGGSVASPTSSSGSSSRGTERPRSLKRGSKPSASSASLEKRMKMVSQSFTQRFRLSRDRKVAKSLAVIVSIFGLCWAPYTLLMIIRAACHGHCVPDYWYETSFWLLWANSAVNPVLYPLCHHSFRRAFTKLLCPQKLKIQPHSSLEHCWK

Usually melting point stands for the temperature, or range, at which the solid turns liquid. In general, Ki refers to the equilibrium dissociation constant of an inhibitor or competing ligand from its target. For the compound `CC(=O)c1ccc(N2CCN(CCCOc3ccc(C(=O)c4ccc(Cl)cc4)cc3)CC2)cc1` [Compound 11, 1-(4-(4-(3-(4-(4-Chlorobenzoyl)phenoxy)propyl)piperazin-1-yl)phenyl)ethan-1-one], the melting point fell in the range of 180.6 to 183.4 °C. For the same compound, in data set [1] (setting [4]), the inhibition constant Ki is above 1000 nM. The “FRAP Assay (λ = 593 nm) Absorbance Increase in 10^−4 mol/L Concentration [%] Mean ± SEM” value in data set [2] was found to be 3.34 ± 0.22%. For the same compound, the “DPPH Assay (λ = 517 nm) Absorbance Decrease in 10^−4 mol/L Concentration [%] Mean ± SEM” value in data set [3] stood at 3.33 ± 0.45%.

As for `O=C1O[C@H]([C@@H](O)CO)C(O)=C1O` [Ascorbic acid, L-ascorbic acid, reference compound], the “FRAP Assay (λ = 593 nm) Absorbance Increase in 10^−4 mol/L Concentration [%] Mean ± SEM” value in data set [2] came out at 344.20 ± 4.65%. The “DPPH Assay (λ = 517 nm) Absorbance Decrease in 10^−4 mol/L Concentration [%] Mean ± SEM” value in data set [3] was found to be 20.52 ± 0.51%.

For `COc1cccc(N2CCN(CCCOc3ccc(C(=O)c4ccc(F)cc4)cc3)CC2)c1.O=C(O)C(=O)O` [Compound 18, (4-Fluorophenyl)(4-(3-(4-(3-methoxyphenyl)piperazin-1-yl)propoxy)phenyl)methanone hydrogen oxalate], the melting point lay in the range of 127.4 to 129.7 °C. Further, the inhibition constant Ki in data set [1] (hH3R Ki [nM] x¯ [CI 95%]) was determined as 715 nM. Besides, the “FRAP Assay (λ = 593 nm) Absorbance Increase in 10^−4 mol/L Concentration [%] Mean ± SEM” value in data set [2] came to 29.73 ± 0.39%. For the same compound, the “DPPH Assay (λ = 517 nm) Absorbance Decrease in 10^−4 mol/L Concentration [%] Mean ± SEM” value in data set [3] was found to be 6.35 ± 0.55%.

`O=C(O)C(=O)O.O=C(c1ccccc1)c1ccc(OCCCN2CCN(C(=O)C3CC3)CC2)cc1` [Compound 7, (4-(3-(4-Benzoylphenoxy)propyl)piperazin-1-yl)(cyclopropyl)methanone hydrogen oxalate]: the melting point was 167.3 to 168.6 °C. The Ki in data set [1] (hH3R Ki [nM] x¯ [CI 95%]) worked out at 1330 nM. In data set [2], the “FRAP Assay (λ = 593 nm) Absorbance Increase in 10^−4 mol/L Concentration [%] Mean ± SEM” value is recorded as 1.43 ± 0.32%. The “DPPH Assay (λ = 517 nm) Absorbance Decrease in 10^−4 mol/L Concentration [%] Mean ± SEM” value in data set [3] is 6.23 ± 0.53%.

`O=C(O)C(=O)O.O=C(c1ccc(Cl)cc1)c1ccc(OCCCN2CCN(C(=O)C3CC3)CC2)cc1` [Compound 8, (4-(3-(4-(4-Chlorobenzoyl)phenoxy)propyl)piperazin-1-yl)(cyclopropyl)methanone hydrogen oxalate]: the melting point lay within 176.9 to 179.2 °C. Moreover, the Ki in data set [1] (hH3R Ki [nM] x¯ [CI 95%]) is above 1000 nM. The “FRAP Assay (λ = 593 nm) Absorbance Increase in 10^−4 mol/L Concentration [%] Mean ± SEM” value in data set [2] was 0.48 ± 0.48%. The “DPPH Assay (λ = 517 nm) Absorbance Decrease in 10^−4 mol/L Concentration [%] Mean ± SEM” value in data set [3] is listed as 6.79 ± 0.51%.

Compound `CC(=O)N1CCN(CCCOc2ccc(C(=O)c3ccccc3)cc2)CC1.O=C(O)C(=O)O` [Compound 4, 1-(4-(3-(4-Benzoylphenoxy)propyl)piperazin-1-yl)ethan-1-one hydrogen oxalate] yielded a melting point of 136.8 to 140 °C. The Ki in data set [1] (hH3R Ki [nM] x¯ [CI 95%]) is 3650 nM.

For the compound `O=C(c1ccccc1)c1ccc(OCCCN2CCN(c3ccc([N+](=O)[O-])cc3)CC2)cc1` [Compound 13, (4-(3-(4-(4-Nitrophenyl)piperazin-1-yl)propoxy)phenyl)(phenyl)methanone], the melting point lay within 182.3 to 183.9 °C. The Ki in data set [1] (setting [4]) was above 1000 nM.

For the compound `CC(=O)N1CCN(CCCOc2ccc(C(=O)c3ccc(Cl)cc3)cc2)CC1` [Compound 5, 1-(4-(3-(4-(4-Chlorobenzoyl)phenoxy)propyl)piperazin-1-yl)ethan-1-one], the Ki in data set [1] (setting [4]) was 1260 nM.

Consider `O=C(c1ccc(F)cc1)c1ccc(OCCCN2CCN(c3ccc([N+](=O)[O-])cc3)CC2)cc1` [Compound 15, (4-Fluorophenyl)(4-(3-(4-(4-nitrophenyl)piperazin-1-yl)propoxy)phenyl)methanone], for which the melting point was 173.3 to 174.2 °C. The Ki in data set [1] (setting [4]) is 580 nM.

Values taken from publication PMC8071534, “Discovery of Potential, Dual-Active Histamine H3 Receptor Ligands with Combined Antioxidant Properties” (Molecules, 2021).
